This assay deals with T1, human renin (Homo sapiens, UniProt P00797).
T1 sequence (P00797 67-406): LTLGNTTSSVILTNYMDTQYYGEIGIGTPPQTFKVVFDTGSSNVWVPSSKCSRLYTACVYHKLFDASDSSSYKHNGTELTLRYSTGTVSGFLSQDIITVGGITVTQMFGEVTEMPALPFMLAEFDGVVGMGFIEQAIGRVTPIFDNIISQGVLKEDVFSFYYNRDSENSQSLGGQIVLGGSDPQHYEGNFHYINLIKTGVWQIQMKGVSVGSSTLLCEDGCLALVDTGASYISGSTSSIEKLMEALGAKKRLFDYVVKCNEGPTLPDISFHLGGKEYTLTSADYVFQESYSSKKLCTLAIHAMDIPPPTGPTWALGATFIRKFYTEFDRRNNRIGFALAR
Nature of the assay: In vitro test with pure human renin (angiotensin I production from human tetradecapeptide renin substrate, measured by RIA). The class given is biochemical. On the procedure: In vitro test with pure human renin
The test is carried out in Eppendorf test tubes. The incubation mixture consists of (1) 100 μl of human renin in buffer A (0.1M sodium phosphate solution, pH 7.4, containing 0.1% bovine serum albumin, 0.1% sodium azide and 1 mM ethylenediaminetetraacetic acid), sufficient for a renin activity of 2-3 ng of angiotensin l/ml/hr.; (2) 145 μl of buffer A: (3) 30 μl of 10 mM human tetradecapeptide renin substrate (hTD) in 10 mM hydrochloric acid: (4) […] of dimethyl sulphoxide with or without inhibitor and (5) 10 μl of a 0.03 molar solution of hydroxyquinoline sulphate in water.
The samples are incubated for three hours at 37° C. and, respectively, 4° C. in triplicate. 2×100 μl samples per test tube are used in order to measure the production of angiotensin I via RIA (standard radioimmunoassay; clinical assay solid phase kit). […] The production of angiotensin I is determined by the difference between the test at 37° C, and that at 4° C.
The following controls are carried out:
(a) Incubation of hTD samples without renin and without inhibitor at 37° C. and 4° C. The difference between these two values gives the base value of the angiotensin I production.
(b) Incubation of hTD samples with renin, but without inhibitor at 37° C. and 4° C. The difference between these values gives the maximum value of the angiotensin I production.
In each sample the base value of the angiotensin I production is subtracted from the angiotensin I production which is determined. The difference between the maximum value and the base value gives the value of the maximum substrate hydrolysis (=100%) by renin.
The IC50 values are determined from a linear regression curve from a logit-log plot.

Where [1] appears, read: pure human renin, pH 7.4, three hours at 37° C. (less 4° C.), human tetradecapeptide substrate, angiotensin I by RIA, read-out: IC50 values (concentration of the inhibitor at which the enzymatic activity is inhibited by 50%).

pIC50: −log10 of the molar value. Structures can show the parent of a compound that is named as a salt. Where two headings read alike, the source gives them in different places.

With `c1ccc(COCCCOc2ccc([C@@H]3[C@@H](OCc4ccc5ccccc5c4)CNC[C@H]3OCCN3CCOCC3)cc2)cc1` (racemic) [Y, 4-{2-[(3RS,4RS,5SR)-4-[4-(3-benzyloxy-propoxy)-phenyl]-3-(naphthalen-2-ylmethoxy)-piperidin-5-yloxy]-ethyl}-morpholine], the pIC50 under setting [1] was 8.52.

In the case of `COc1ccc(CO[C@H]2CNC[C@@H](OCc3ccc(OC)cc3)[C@@H]2c2ccc(OCCCOCc3ccccc3)cc2)cc1` [AA, (3R,4s,5S)-4-[4-(3-benzyloxy-propoxy)-phenyl]-3,5-bis-(4-methoxy-benzyloxy)-piperidine], under setting [1], the pIC50 was 9.00.

For `O=C(Cc1ccc2ccccc2c1)[C@H]1CNCC[C@@H]1c1ccc(OCCCOCc2ccccc2)cc1` (relative stereo) [R, [(3RS,4SR)-4-[4-(3-benzyloxy-propoxy)-phenyl]-piperidin-3-yl]-2-naphthalen-2-yl-ethanone hydrochloride (1:1)], under setting [1], the pIC50 was 8.52.

Regarding `c1ccc(COCCCOc2ccc([C@H]3[C@H](Cn4cncn4)CNC[C@@H]3OCc3ccc4ccccc4c3)cc2)cc1` (relative stereo) [NN, (3RS,4RS,5SR)4-[4(3-Benzyloxy-propoxy)-phenyl3-(naphthalen-2-ylmethoxy)-5[1,2,4]triazol1-ylmethyl-piperidine hydrochloride], the pIC50 under setting [1] was 9.00.

Turning to `Fc1ccc([C@H]2C[C@@H]3CC[C@@H](N3)[C@@H]2OCc2cc(OCc3ccccc3)c3ccccc3c2)cc1` (racemic) [L, (1RS,2RS,3RS,5SR)-2-(4-benzyloxy-naphthalen-2-ylmethoxy)-3-(4-fluoro-phenyl)-8-aza-bicyclo[3.2.1]octane], the pIC50 is 5.51.

On to `CN1CCN(CCOc2ccc3ccc(CO[C@H]4CNCC[C@@H]4c4ccc(OCCCOCc5ccccc5)cc4)cc3c2)CC1` (racemic) [Q, 1-[2-[7-[(3RS,4RS)-4-[4-(3-benzyloxy-propoxy)-phenyl]-piperidin-3-yloxymethyl]-naphthalen-2-yloxy]-ethyl]-4-methyl-piperazine hydrochloride (1:3)], for which the pIC50 under setting [1] was 8.30.

On to `c1ccc(COCCCOc2ccc([C@H]3[C@H](CSc4ccncc4)CNC[C@@H]3OCc3ccc4ccccc4c3)cc2)cc1` (relative stereo) [EE], for which the pIC50 under setting [1] is 9.40.

As to `COC[C@@H]1CNC[C@H](OCc2ccc3ccccc3c2)[C@H]1c1ccc(OCCCOCc2ccccc2)cc1` (relative stereo) [CC], the pIC50 under setting [1] is 8.70.

With `OCCCO[C@@H]1CNC[C@H](OCc2ccc3ccccc3c2)[C@H]1c1ccc(OCCCOCc2ccccc2)cc1` (racemic) [W, 3-[(3RS,4SR,5SR)-4-[4-(3-benzyloxy-propoxy)-phenyl]-3-(naphthalen-2-ylmethoxy)-piperidin-5-yloxy]-propan-1-ol], under setting [1], the pIC50 is 8.70.

Take `COc1ccccc1COc1cc(CO[C@H]2CNCC[C@@H]2c2ccc(OCCOC(=O)c3ccccc3)cc2)cc2ccccc12` (racemic) [C, (3RS,4RS)-2-[4-[3-[4-(2-methoxy-benzyloxy)-naphthalen-2-ylmethoxy]-piperidin-4-yl]-phenoxy]-ethyl benzoate hydrochloride]: under setting [1], the pIC50 was 7.15.

Consider `CN(C)Cc1ccc2ccc(CO[C@H]3CNCC[C@@H]3c3ccc(OCCCOCc4ccccc4)cc3)cc2c1` (racemic) [QQ, (7-{(3RS,4RS)-4-[4-(3-benzyloxy-propoxy)-phenyl]-piperidin-3-yloxymethyl}-naphthalen-2-ylmethyl)-dimethyl-amine], for which the pIC50 under setting [1] is 8.70.

As to `COc1cc(CO[C@H]2CNCC[C@@H]2c2cnc(OCCCCC3CCCCC3)nc2)c(OC)c2ccccc12` (relative stereo) [FF], the pIC50 under setting [1] was 9.22.

For `COc1cc(CO[C@H]2CNCC[C@@H]2c2ccc(OCCCC3CCCCC3)nc2)c(OC)c2ccccc12` (relative stereo) [GG, (3'RS,4'RS)6-(3-Cyclohexyl-propoxy)-3(1,4-dimethoxy-naphthalen-2-ylmethox)-1',2',3',4',5',6hexahydro-[3,4']bipyridine], under setting [1], the pIC50 was 9.00.

With `O=C(OC(Cc1ccc2ccccc2c1)[C@H]1CNCC[C@@H]1c1ccc(F)cc1)c1ccccc1` (stereo partly drawn) [K, (SR)- or (RS)-1-[(3RS,4SR)-4-(4-fluoro-phenyl)-piperidin-3-yl]-2-naphthalen-2-yl-ethyl benzoate hydrochloride (1:1)], the pIC50 under setting [1] was 5.59.

In the case of `O=C1NCCN1C[C@@H]1CNC[C@H](OCc2ccc3ccccc3c2)[C@H]1c1ccc(OCCCOCc2ccccc2)cc1` (relative stereo) [VV], the pIC50 under setting [1] is 8.70.

For the compound `CN(C)CCN(C)C[C@@H]1CNC[C@H](OCc2ccc3ccccc3c2)[C@H]1c1ccc(OCCCOCc2ccccc2)cc1` (relative stereo) [II], the pIC50 under setting [1] was 8.70.

`OC[C@@H]1CNC[C@H](OCc2ccc3ccccc3c2)[C@H]1c1ccc(OCCCOCc2ccccc2)cc1` (relative stereo) [HH, (3SR,4RS,5RS)[4[4(3-Benzyloxy-propoxy)-phenyl5-(naphthalen-2-ylmethoxy)-pperidin-3-ylmethanol hydrochloride]: the pIC50 under setting [1] was 8.22.

In the case of `COc1ccccc1COCCCOc1ccc([C@H]2[C@H](O)CNC[C@@H]2OCc2cc(OC)c3ccccc3c2OC)cc1` (racemic) [ZZ, (3RS,4SR,5SR)-3-(1,4-dimethoxy-naphthalen-2-ylmethoxy)-4-[4-[3-(2-methoxy-benzyloxy)-propoxy]-phenyl]-piperidin-5-ol], under setting [1], the pIC50 is 10.52.

For the compound `COc1ccccc1COCCCOc1ccc([C@H]2CCNC[C@@H]2OCc2ccc3ccncc3c2)cc1` (racemic) [XX, (3RS,4RS)-3-(isoquinolin-7-ylmethoxy)-4-[4-[3-(2-methoxy-benzyloxy)-propoxy]-phenyl]-piperidine], under setting [1], the pIC50 is 9.10.

`Fc1ccc([C@H]2CCNC[C@@H]2OCc2cc(OCc3ccccc3)c3ccccc3c2)cc1` [RR, (3R,4R)3-(4-Benzyloxy-naphthalen-2-ylmethoxy)-4-(4-fluoro-phenyl)-piperidne]: the pIC50 under setting [1] is 6.57.

As for `CCC[C@@H]1CNC[C@H](OCc2cc(OCc3ccccc3)c3ccccc3c2)[C@H]1c1ccc(F)cc1` (racemic) [Compound I, (3RS,4RS,5SR)-3-(4-benzyloxy-naphthalen-2-ylmethoxy)-4-(4-fluoro-phenyl)-5-propyl-piperidine], the pIC50 under setting [1] was 6.50.

With `c1ccc(-c2cc(COc3ccc([C@H]4CCNC[C@@H]4OCc4ccc5ccccc5c4)cc3)on2)cc1` (racemic) [F, (3RS,4RS)-3-(naphthalen-2-ylmethoxy)-4-[4-(3-phenyl-isoxazol-5-ylmethoxy)-phenyl]-piperidine trifluoroacetate], the pIC50 under setting [1] is 7.24.

As to `COc1ccc(CO[C@H]2CNC[C@@H](O)[C@@H]2c2ccc(OCCCOCc3ccccc3)cc2)cc1` (racemic) [Z, (3RS,4SR,5SR)-4-[4-(3-benzyloxy-propoxy)-phenyl]-3-(4-methoxy-benzyloxy)-piperidin-5-ol], the pIC50 under setting [1] is 9.00.

Turning to `COc1ccccc1COCCCOc1ccc([C@H]2CCNC[C@@H]2OCc2ccc3ccc(=O)[nH]c3c2)cc1` (racemic) [WW, (3RS,4RS)-4-[4-[3-(2-methoxy-benzyloxy)-propoxy]-phenyl]-3-(2-oxo-1,2-dihydro-quinolin-7-ylmethoxy)-piperidine], under setting [1], the pIC50 was 8.05.

`COc1cc(CO[C@H]2CNC[C@@H](OCc3cc(OC)c(OC)c(OC)c3)[C@@H]2c2ccc(OCCCOCc3ccccc3)cc2)cc(OC)c1OC` [MM, (3R,4s,5S)-4-[4-(3-benzyloxy-propoxy)-phenyl]-3,5-bis-(3,4,5-trimethoxy-benzyloxy)-piperidine]: under setting [1], the pIC50 was 9.30.

For the compound `OCC(O)COCc1ccc2ccc(CO[C@H]3CNCC[C@@H]3c3ccc(OCCCOCc4ccccc4)cc3)cc2c1` (mixture of isomers) [T, a mixture of (3RS,4RS)- and (3SR,4SR)-4-[4-(3-benzyloxy-propoxy)-phenyl]-3-[7-[(RS)-2,3-dihydroxy-propoxymethyl]-naphthalen-2-ylmethoxy]-piperidine], the pIC50 under setting [1] is 8.30.

Take `c1ccc(COCCCOc2ccc([C@H]3CCNC[C@@H]3OCc3ccc4ccc(OCCN5CCOCC5)cc4c3)cc2)cc1` (racemic) [N, 4-[2-[7-[(3RS,4RS)-4-[4-(3-benzyloxy-propoxy)-phenyl]-piperidin-3-yloxymethyl]-naphthalen-2-yloxy]-ethyl]-morpholine hydrochloride (1:2)]: under setting [1], the pIC50 was 7.92.

For the compound `COc1ccccc1COCCCOc1ccc([C@H]2CCNC[C@@H]2OCc2cc(OC)c3ccccc3c2OC)cc1` (relative stereo) [UU], the pIC50 is 10.00.

Values taken from patent publication US6051712A, “Piperidine derivatives having renin inhibiting activity” (Hoffmann-La Roche Inc., priority 1995, dated 2000).
